Experimental findings from EP4700025A1, “AMIDE COMPOUND, PHARMACEUTICAL COMPOSITION COMPRISING SAME, AND USE THEREOF” (Suzhou Genhouse Bio Co., Ltd., priority 2023, dated 2024) are described below.

Read-outs that look alike come from different tables or passages of the source.

Data set [1] concerns SDMA. Nature of the data set: SDMA Inhibition Assay in HCT-116-MTAP^-/- cells. The class given is cell-based. The settings on record: Homo sapiens, 96 hours.
For another data set, the target named is PRMT5 (Homo sapiens, UniProt O14744). Nature of the data set: Inhibitory activity against enzymatic activity of PRMT5 (fluorescence polarization). The class given is biochemical. The note with it: PRMT5 25 nM, SAM 1 µM, polypeptide 1 µM, MTA 2 µM; 37 °C 2 hours. The procedure: The compounds were prepared into 10 mM stock solutions using DMSO, and then 9 concentration gradients (with an initial concentration of 10 µM followed by 1:5 dilution) were prepared using a buffer (50 mM Tris-HCl pH 8.5, 5 mM MgCl2, 4 mM DTT, 0.01% Triton X-100, 0.1 M NaCl, 0.5% DMSO), and each well received 5 µL of the diluted compound solutions. SAM, a polypeptide, and MTA were prepared using a buffer to final concentrations of 1 µM, 1 µM, and 2 µM, respectively, and were added to each well in a total of 5 µL. Meanwhile, an MTA-free group was set as a control. […] Subsequently, a mixture of 2.5 µL of stop buffer A, 2.5 µL of an 8× MT assay mixture (final concentration: 1×), and 24 µg/mL AMP2/GMP2 antibodies (final concentration: 3 µg/mL) was added. The resulting mixture was incubated at room temperature for 1.5 hours, and fluorescence polarization (FP) was measured (Ex 633, Em 647). Meanwhile, negative control wells without protein (Blank) and positive control wells without compound (DMSO) were set. Each experiment was independently repeated three times.
Data processing: The numerical values of each group were recorded for statistical analysis, and the inhibition rate was calculated according to the following formula: inhibition percentage of compound wells (% inh) = [1 - (ave Blank - Cpd well)/(ave Blank - ave DMSO control)] × 100. Note: ave represents the average value, and Cpd represents the numerical value of the wells containing the compound. A sigmoidal dose-inhibition rate curve was plotted and fitted using a nonlinear regression model in the GraphPad Prism 7.0 software, and the IC50 value was calculated. Table 1. Inhibitory activity of compounds against enzymatic activity of PRMT5

The subject of data set [2] is SDMA. Nature of the data set: SDMA Inhibition Assay in A549 cells. Format: cell-based. The settings on record: Homo sapiens, A549, 96 hours.
The next data set concerns HCT-116-MTAP^-/- cells. Nature of the data set: Pharmacodynamic study, HCT-116-MTAP^-/- subcutaneous xenograft. Format: in vivo, mouse. The note with it: HCT-116-MTAP^-/- xenograft, 60 mpk PO QD. The procedure:
Human colon cancer HCT-116-MTAP^-1- cells were cultured in monolayer in vitro using the McCoy 5A culture medium (HyClone) containing 10% fetal bovine serum (BI) and 1% penicillin and streptomycin (Beyotime) in an incubator at 37 °C with 5% CO2. The cells were digested with trypsin 2 to 3 times weekly for passaging. When the saturation degree of the cells was 80% to 90%, the cells were collected, counted, and inoculated. 5 × 10^6 (0.1 mL) HCT-116-MTAP^-/- cells were subcutaneously inoculated on the right back of each mouse. On about day 15 after inoculation of the cells, the mean tumor volume reached 172 mm^3. The mice were randomly grouped for administration (the animals were divided into an administration group and a control group, with 6 animals in each group). The day of grouping was designated as d0, and intragastric administration was started on d1. The administration was performed once daily at an administration volume of 10 mL/kg. Vehicle control was administered to the control group. The tumor volume was measured 2 to 3 times weekly, and meanwhile, the mice were weighed and the data were recorded; daily observations were made to record the body surface signs of the mice. After the experiment was completed, the tumors were collected, weighed, and photographed for recording.
Calculation formula for tumor volume: Tumor volume (mm^3) = 1/2 × (a×b^2) [formula] (note: a represents long diameter and b represents short diameter) [formula]

The nature of data set [3]: Pharmacokinetic assay in mice. Format: in vivo, Balb/c mice. The note with it: mouse; for MRT inf: read-out: MRT(0-∞). The procedure: Eighteen male Balb/c mice aged 6 to 8 weeks were randomly divided into 2 groups (IV group and PO group). The corresponding compounds were administered to the animals in the IV group by tail intravenous injection at 2 mg/kg, and the corresponding compounds were administered to the animals in the PO group by oral gavage at 10 mg/kg or 100 mg/kg. The animals in the IV group were allowed free access to food and water, and the animals in the PO group were fasted overnight before administration and were fed 4 h after administration. Throughout the experiment, the animals were allowed free access to water. Plasma samples were separately collected at 0.083 h (only group IV), 0.25 h, 0.5 h, 1 h, 2 h, 4 h, 8 h, and 24 h after administration. About 100 µL of blood was collected from the orbit of the animal, placed into a 1.5 mL anticoagulation centrifuge tube, and centrifuged at 8000 rpm and 4 °C for 10 min. The upper plasma sample was transferred to an EP tube. The plasma samples were stored in a refrigerator at -80 °C until sample analysis. Pharmacokinetic parameters of the drug were calculated based on the drug concentration-time data, including the peak concentration Cmax, peak time Tmax, clearance rate CL, steady state apparent volume of distribution Vss, area under drug-time curve AUC, elimination half-life t1/2, bioavailability, and the like. Data below the 80% lower limit of quantification were excluded from the calculation of pharmacokinetic parameters.

Another data set has as its system HCT-116-MTAP^-/-. Nature of the data set: CCK8 proliferation inhibition, HCT-116-MTAP^-/-. The note with it: Homo sapiens, 192 h; HCT-116-MTAP^-/- (MTAP-deficient); CCK8, 8 days after drug treatment. The class given is cell-based.
The test system of data set [4] is SDMA. Nature of the data set: SDMA Inhibition Assay in HCT-116 cells. The note with it: Homo sapiens, HCT-116, 96 hours. The class given is cell-based.
The next data set has as its system HCT-116. Nature of the data set: CCK8 proliferation inhibition, HCT-116. The class given is cell-based. The settings on record: Homo sapiens, 192 h, CCK8, 8 days after drug treatment.
The test system of the next data set is A549. The experiment in a line: CCK8 proliferation inhibition, A549. The note with it: Homo sapiens, 192 h, CCK8, 8 days after drug treatment. Format: cell-based. The procedure:
The above normally growing cells were digested with a cell trypsinization solution, centrifuged, counted, and seeded into a 96-well plate at an appropriate cell density (2000 cells/well) at 100 µL/well. The next day after cell seeding, the compounds at different concentrations were added to the wells. Three replicate wells were set for each concentration point, and a corresponding DMSO negative control group was also set. CCK8 solution was added to each well 8 days after drug treatment. The plate was incubated at 37 °C for a period of time (OD450 of the vehicle group reached 1.0 or higher) before the absorbance at 450 nm was read using a microplate reader. The inhibition rates were calculated, and the EC50 values were determined by fitting using the GraphPad Prism 7.0 software. Table 2. EC50 values of compounds at cellular level

Data set [5] has as its target T1, hERG Potassium Ion Channel (Homo sapiens, UniProt Q12809).
T1 construct: expressed in transfected cells; host or cells: HEK293
Nature of the data set: Effect on hERG potassium ion channel (whole-cell patch clamp, HEK293 cells). The settings on record: whole-cell patch clamp (Qpatch), room temperature. Format: cell-based. The procedure: HEK293 cells were cultured in a DMEM medium containing 10% fetal bovine serum and 0.8 mg/mL G418 at 37 °C with 5% CO2. The cells were digested by TrypLE™ Express and then centrifuged. The cell density was adjusted to 2 × 10^6 cells/mL. The cells were then gently mixed for 15 to 20 min using a shaker equilibrated at room temperature, and subjected to a patch clamp assay on a machine. The culture medium of the prepared cells was replaced with extracellular fluid. The intracellular fluid and the extracellular fluid were taken from the fluid pool and added to the intracellular fluid pool and the cell and test substance pool of the QPlate chip, respectively. The voltage stimulation of the whole-cell hERG potassium current was recorded by the whole-cell patch clamp, and the experimental data were collected and stored by Qpatch. […] The current detected in compound-free extracellular fluid for each cell served as its own control group, and the detection was repeated twice independently using at least two cells per concentration. […] For data analysis, the current after the action of each drug concentration and the current of the blank control were standardized ((Peak tail currentcompound)/(Peak tail currentvehicle)) [formula] , and then the inhibition rate corresponding to each drug concentration was calculated (1−(Peak tail currentcompound)/(Peak tail currentvehicle)) [formula] . […]
Background: The hERG channel carries a current that helps repolarise heart muscle cells.

Data set [6] is described as follows: Pharmacokinetic assay in rats. Format: in vivo, SD rats. The note with it: rat. The procedure: In this experimental example, the pharmacokinetic behavior of the test compounds after administration by intravenous injection (IV) and oral gavage (PO) in SD rats was tested.
On the day of administration, rats were weighed for actual body weight, and the administration volume was calculated. Each compound was tested in two groups with 3 rats in each group; one group was subjected to administration by single intravenous injection, and the other group was subjected to administration by single oral gavage. The whole blood samples were collected via the jugular vein at prescribed time points (0.25 h, 0.5 h, 1 h, 2 h, 4 h, 8 h, and 24 h after administration). After the blood sample collection, the samples were immediately transferred to labeled commercial sample tubes containing K2-EDTA (0.85-1.15 mg), followed by centrifugation (3200× g, 4 °C, 10 min) and plasma collection. The plasma was transferred to a pre-cooled centrifuge tube, frozen in dry ice, and then stored in an ultra-low temperature freezer at -60 °C or lower until the LC-MS/MS analysis was performed.
Plasma concentrations were determined by the LC-MS/MS method. Plasma drug concentration data for the compounds were processed using a non-compartmental model in the WinNonlin Version 6.3 (Pharsight, Mountain View, CA) pharmacokinetic software. The relevant pharmacokinetic parameters were calculated by a linear-log trapezoidal method.

The mark [7] stands for this setting: male, Balb/c, plasma, 2 mg/kg, IV 2mpk.
The mark [8] stands for this setting: male, Balb/c, plasma, 10 mg/kg, PO 10mpk.
Where [9] appears, read: male, Balb/c, plasma, 100 mg/kg, PO 100mpk.
Setting [10] is: SD, plasma, 100 mg/kg, PO 100mpk.

T1 sequence (Q12809 whole entry): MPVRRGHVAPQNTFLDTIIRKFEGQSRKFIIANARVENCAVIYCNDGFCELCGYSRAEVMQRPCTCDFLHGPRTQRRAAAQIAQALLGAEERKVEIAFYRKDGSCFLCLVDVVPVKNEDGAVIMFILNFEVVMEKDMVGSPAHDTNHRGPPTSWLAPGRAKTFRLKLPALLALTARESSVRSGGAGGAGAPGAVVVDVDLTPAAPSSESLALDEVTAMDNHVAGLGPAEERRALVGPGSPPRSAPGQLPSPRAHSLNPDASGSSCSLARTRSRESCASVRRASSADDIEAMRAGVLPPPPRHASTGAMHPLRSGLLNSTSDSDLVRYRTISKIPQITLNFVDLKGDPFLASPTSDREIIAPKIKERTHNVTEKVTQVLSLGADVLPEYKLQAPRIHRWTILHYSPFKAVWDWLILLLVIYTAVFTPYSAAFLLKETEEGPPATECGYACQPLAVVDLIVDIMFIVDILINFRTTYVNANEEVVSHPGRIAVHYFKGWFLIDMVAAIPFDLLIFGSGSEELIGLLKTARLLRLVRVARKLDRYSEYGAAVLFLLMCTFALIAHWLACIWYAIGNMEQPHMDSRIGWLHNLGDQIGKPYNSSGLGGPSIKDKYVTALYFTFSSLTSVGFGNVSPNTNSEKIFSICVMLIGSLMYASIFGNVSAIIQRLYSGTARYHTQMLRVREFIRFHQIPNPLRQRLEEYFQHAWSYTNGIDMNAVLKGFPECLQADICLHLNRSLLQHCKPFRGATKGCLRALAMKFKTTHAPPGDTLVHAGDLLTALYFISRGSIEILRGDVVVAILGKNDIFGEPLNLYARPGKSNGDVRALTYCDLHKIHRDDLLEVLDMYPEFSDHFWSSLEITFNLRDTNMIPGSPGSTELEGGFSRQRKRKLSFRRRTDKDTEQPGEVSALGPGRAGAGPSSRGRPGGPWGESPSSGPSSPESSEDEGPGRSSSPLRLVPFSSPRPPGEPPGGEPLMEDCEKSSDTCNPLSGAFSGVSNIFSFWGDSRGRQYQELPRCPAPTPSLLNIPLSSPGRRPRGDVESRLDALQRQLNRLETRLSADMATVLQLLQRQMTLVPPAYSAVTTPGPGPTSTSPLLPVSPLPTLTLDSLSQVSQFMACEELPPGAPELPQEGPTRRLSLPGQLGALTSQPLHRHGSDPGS
Chain of PRMT5 (O14744 whole entry): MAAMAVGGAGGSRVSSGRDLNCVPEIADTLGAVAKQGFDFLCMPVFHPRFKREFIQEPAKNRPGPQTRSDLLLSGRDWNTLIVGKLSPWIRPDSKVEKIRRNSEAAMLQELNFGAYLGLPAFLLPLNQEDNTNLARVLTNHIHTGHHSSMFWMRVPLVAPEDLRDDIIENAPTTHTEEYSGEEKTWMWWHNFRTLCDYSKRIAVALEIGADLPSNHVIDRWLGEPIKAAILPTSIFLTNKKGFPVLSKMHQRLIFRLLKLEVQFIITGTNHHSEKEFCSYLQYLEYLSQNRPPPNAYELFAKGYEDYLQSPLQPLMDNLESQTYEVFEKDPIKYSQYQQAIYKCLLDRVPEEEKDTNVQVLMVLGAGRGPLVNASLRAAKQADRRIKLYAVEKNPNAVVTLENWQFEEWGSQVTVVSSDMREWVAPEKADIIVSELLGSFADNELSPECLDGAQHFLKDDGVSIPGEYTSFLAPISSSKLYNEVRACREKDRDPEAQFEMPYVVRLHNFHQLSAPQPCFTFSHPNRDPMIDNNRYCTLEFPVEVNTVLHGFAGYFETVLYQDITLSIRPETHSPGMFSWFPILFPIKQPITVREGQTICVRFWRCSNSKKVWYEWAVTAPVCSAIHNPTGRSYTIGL
Chain of PRMT5 (Q9BQA1 whole entry partner): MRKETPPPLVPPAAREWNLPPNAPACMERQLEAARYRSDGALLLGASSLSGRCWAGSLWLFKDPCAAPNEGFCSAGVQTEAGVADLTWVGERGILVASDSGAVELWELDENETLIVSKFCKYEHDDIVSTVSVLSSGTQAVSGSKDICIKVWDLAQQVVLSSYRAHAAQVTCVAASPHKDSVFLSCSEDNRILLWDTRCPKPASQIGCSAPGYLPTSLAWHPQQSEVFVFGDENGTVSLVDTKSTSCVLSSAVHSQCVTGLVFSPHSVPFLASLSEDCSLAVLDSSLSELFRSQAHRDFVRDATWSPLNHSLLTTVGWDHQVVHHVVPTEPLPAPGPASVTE

What is called EC50 is the concentration needed to bring the measured effect to its halfway point. Broadly, the IC50 is the concentration at which inhibition is half-maximal. A lower IC50 goes with inhibition by little substance. The AUC(0-inf) is the area under the concentration-time curve extrapolated to infinity. Low values mean less exposure, high ones more exposure. What is called AUC(0-t) is exposure summed from dosing to a finite time, without extrapolation to infinity. Read a low AUC(0-t) as less exposure. Usually Cmax stands for the highest concentration seen after dosing. Broadly, the Tmax is the time from dosing to the highest level. In turn, `CN(Cc1ccc2c(c1)OC(F)(F)O2)C(=O)c1cc2c(cc1F)nc(N)c1cnn(C)c12` [Example I-1] had an EC50 in the data set with SDMA [1] of 1.5 nM. For the same molecule, inhibition against PRMT5 was half-maximal at 48.5 nM (IC50). Further, in the data set on SDMA [2], the midpoint of the response, the EC50, lay at 1.4 nM. In addition, the “Day 28 TGI” value in the data set on HCT-116-MTAP^-/- cells turned out to be 85%. In data set [3] (setting [7]), the AUC(0-inf) is 5.69 µM·h, the area under the curve AUC(0-t) is 5.45 µM·h, the C0 came to 3.52 µM and the MRT inf was 2.3 h. In addition, the Vd in [3] (male, Balb/c, plasma, 2 mg/kg, IV 2mpk, read-out: Vz) is 2 L/kg. Besides, in data set [3] (setting [8]), the area under the curve AUC(0-inf) turned out to be 18.4 µM·h, the AUC(0-t) is 18.1 µM·h, the Cmax is 3.24 µM and the Tmax was 1 h. Moreover, the MRT inf in [3] (setting [8]) came to 5.5 h. Also, in [3] (IV 2mpk), the CLz came out at 13 mL/min/kg, the “R_AUC(t/∞)” value was found to be 95.8% and the t1/2z was 1.8 h. Besides, in [3] (PO 10mpk), the “R_AUC(t/∞)” value is reported as 98.3% and the t1/2z is 4.1 h. In data set [3] (PO 10mpk vs IV 2mpk), this molecule showed an F of 64.7%. In the data set with HCT-116-MTAP^-/-, this molecule returned a 50% effective concentration (EC50) of 4.2 nM. Also, the response with SDMA [4] was half-maximal at 220 nM (EC50). Further, the EC50 in the data set on HCT-116 was 3230 nM. This molecule also registered an EC50 with A549 of 41.8 nM.

Turning to `Cn1ncc2c(N)nc3cnc(C(=O)N4CCOC[C@@H]4c4ccc(C(F)(F)F)cc4)cc3c21` [Control compound A, reference compound], the AUC(0-t) in data set [3] (setting [7]) came out at 9.6 µM·h; in data set [3] (setting [9]), 455 µM·h; in data set [6] (SD, plasma, 2 mg/kg, IV 2mpk) it was 4.75 µM·h; in data set [6] (setting [10]) it was 122 µM·h. The Cmax in [3] (setting [9]) turned out to be 35.7 µM; in data set [6] (setting [10]) it was 5.42 µM. In data set [5], this molecule gave a concentration for half-maximal inhibition (IC50) of 13000 nM. The same molecule had a F in [6] (PO 100mpk vs IV 2 mpk) of 51%.
